One assay is filed under the species Mus musculus. As to the kind of experiment: Blood glucose lowering activity in hyperglycemic kk mice. Further details: concentration or dose not given beside the values. It counts as functional.
Assay [1] addresses T1, Peroxisome proliferator-activated receptor gamma (Homo sapiens, UniProt P37231).
T1 sequence (P37231 whole entry): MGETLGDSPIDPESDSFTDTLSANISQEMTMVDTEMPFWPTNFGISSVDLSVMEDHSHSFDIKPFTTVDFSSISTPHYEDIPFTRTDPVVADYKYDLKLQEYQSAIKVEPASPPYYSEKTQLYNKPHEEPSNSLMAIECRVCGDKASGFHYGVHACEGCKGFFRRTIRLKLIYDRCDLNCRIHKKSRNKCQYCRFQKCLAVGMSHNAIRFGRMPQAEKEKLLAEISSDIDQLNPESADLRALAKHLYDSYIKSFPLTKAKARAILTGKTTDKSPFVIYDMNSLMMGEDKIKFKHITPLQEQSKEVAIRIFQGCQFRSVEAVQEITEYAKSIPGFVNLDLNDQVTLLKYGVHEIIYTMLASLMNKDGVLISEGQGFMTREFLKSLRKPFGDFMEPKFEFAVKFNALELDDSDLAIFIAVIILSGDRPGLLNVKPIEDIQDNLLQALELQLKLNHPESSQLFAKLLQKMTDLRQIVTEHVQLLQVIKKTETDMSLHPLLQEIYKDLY
Description: Peroxisome proliferator activated receptor gamma agonistic activity in HepG2 cells.

In ChEMBL document CHEMBL1133395, “Novel oximes having 5-benzyl-2,4-thiazolidinedione as antihyperglycemic agents: synthesis and structure-activity relationship” (Bioorg Med Chem Lett, 2000) one finds Change and EC50 data, which are given here for 18 molecules.

Bounds are passed on as bounds.

In the case of `CC/C(=N\OCCOc1ccc(CC2SC(=O)NC2=O)cc1)c1ccc(-c2ccccc2)cc1` (stereo not drawn), the Change in the assay listed under Mus musculus came to 67%. Moreover, the EC50 (in general, the concentration needed to bring the measured effect to its halfway point) in assay [1] was determined as 1600 nM.

For `C/C(=N\OCCOc1ccc(CC2SC(=O)NC2=O)cc1)c1ccc(-c2ccncc2)cc1` (stereo not drawn), the Change in the assay filed under Mus musculus turned out to be 44%. In addition, in assay [1], a half-maximal effect (EC50) was put at 1600 nM. For `CCC/C(=N\OCCOc1ccc(CC2SC(=O)NC2=O)cc1)c1ccc(-c2ccccc2)cc1` (stereo not drawn), in that order: 29% and more than 100000 nM. As for `C/C(=N\OCCOc1ccc(CC2SC(=O)NC2=O)cc1)c1ccccc1-c1ccccc1` (stereo not drawn), the Change in the assay filed under Mus musculus turned out to be 23%. In addition, the EC50 in assay [1] was more than 100000 nM. Regarding `C/C(=N\OCCOc1ccc(CC2SC(=O)NC2=O)cc1)c1ccc(-c2ccccc2)nc1` (stereo not drawn), the Change in the assay listed under Mus musculus was 58%. `C/C(=N\OCCOc1ccc(CC2SC(=O)NC2=O)cc1)c1ccc(-c2ccccc2)cn1` (stereo not drawn) displayed a Change in the assay listed under Mus musculus of 61%. The same molecule had an EC50 in assay [1] of 1100 nM. Molecule `C/C(=N\OCCCOc1ccc(CC2SC(=O)NC2=O)cc1)c1ccc(-c2ccccc2)cc1` (stereo not drawn) showed a Change in the assay listed under Mus musculus of 20%. In assay [1], the EC50 is more than 100000 nM. For `C/C(=N\OCCOc1ccc(CC2SC(=O)NC2=O)cc1)c1ccc(-c2ccccc2)cc1` (stereo not drawn), in that order: 67% and 400 nM. For `C/C(=N\OCCOc1ccc(CC2SC(=O)NC2=O)cc1)c1ccccn1` (stereo not drawn) the same measures were 67% and 2800 nM. For `C/C(=N\OCCOc1ccc(CC2SC(=O)NC2=O)cc1)c1ccncc1` (stereo not drawn) the same measures were 48% and 7900 nM. Consider `C/C(=N\OCCOc1ccc(CC2SC(=O)NC2=O)cc1)c1cccc(-c2ccccc2)c1` (stereo not drawn), for which, in the assay filed under Mus musculus, the Change is 42%. Also, a half-maximal response in assay [1] (EC50) required 330 nM. As to `C/C(=N\OCCOc1ccc(CC2SC(=O)NC2=O)cc1)c1ccc(-c2cccnc2)cc1` (stereo not drawn), in the assay listed under Mus musculus, the Change is given as 42%. In assay [1], this molecule had a half-maximal effective concentration (EC50) of 800 nM.

`C/C(=N\OCCOc1ccc(CC2SC(=O)NC2=O)cc1)c1ccc(-c2ccccn2)cc1` (stereo not drawn): in the assay listed under Mus musculus, the Change is 58%. This molecule also registered an EC50 in assay [1] of 640 nM. For `O=C1NC(=O)C(Cc2ccc(OCCO/N=C/c3ccc(-c4ccccc4)cc3)cc2)S1` (stereo not drawn), the Change in the assay filed under Mus musculus was determined as 7%. Also, the EC50 in assay [1] is more than 100000 nM. For `C/C(=N\OCCOc1ccc(CC2SC(=O)NC2=O)cc1)c1ccccc1` (stereo not drawn) the same measures were 57% and 1700 nM. For `C/C(=N\OCCOc1ccc(CC2SC(=O)NC2=O)cc1)c1cccnc1` (stereo not drawn) the same measures were 43% and 2800 nM. For `CCc1ccc(CCOc2ccc(CC3SC(=O)NC3=O)cc2)nc1.Cl` (stereo not drawn) [PIOGLITAZONE HYDROCHLORIDE], the Change in the assay filed under Mus musculus was found to be 42%. In the assay listed under Mus musculus, `CN(CCOc1ccc(CC2SC(=O)NC2=O)cc1)c1ccccn1.O=C(O)/C=C\C(=O)O` (stereo not drawn) [ROSIGLITAZONE MALEATE] returned a Change of 66%.
